Where two headings read alike, the source gives them in different places.
Legend:
Type in all cases: cell-based
[1] = test system: Trypanosoma brucei rhodesiense strain STIB 900 (bloodstream trypomastigotes); experiment: microbe, parasite or virus in culture; details: for IC50: read-out: IC50 TB
[2] = test system: Leishmania donovani strain MHOM/ET/67/L82 (axenic amastigotes); experiment: in vitro growth inhibition of L. donovani; details: for IC50: read-out: IC50 LD
[3] = test system: L6 rat skeletal myoblasts; experiment: cytotoxicity against mammalian cells; details: read-out: IC50 L6
[4] = test system: Trypanosoma cruzi strain Tulahuen C2C4 (intracellular amastigotes in L6 cells); experiment: in vitro growth inhibition of T. cruzi; details: for SI TC: ratio of cytotoxic (L6) over antiparasitic IC50
[5] = Trypanosoma brucei, pure compound
[6] = ratio of cytotoxic (L6) over antiparasitic IC50
[7] = Leishmania donovani, pure compound
[8] = Rattus norvegicus, Myoblast, cytotoxicity, pure compound
[9] = Trypanosoma cruzi, TULAHUEN, L6, pure compound, read-out: IC50 TC
[10] = pure compound, read-out: IC50 TC

| Structure (SMILES) | IC50 [1, 5] | SI TB [1, 6] | IC50 [2, 7] | SI LD [2, 6] | IC50 [3, 8] | IC50 [4, 9] | SI TC [4] | further results |
| --- | --- | --- | --- | --- | --- | --- | --- | --- |
| O=C1C=CC(=O)c2ccccc21 [1,4-Naphthoquinone] | 0.58 µM | 11.1 | 2.38 µM | 2.7 | 6.39 µM | 9.24 µM | 0.7 |  |
| CC(C)=CC[C@@H](O)C1=CC(=O)c2c(O)ccc(O)c2C1=O [Shikonin] | 0.03 µM | 2.1 |  | 0.5 |  |  | 0.2 | IC50 ([2]; Leishmania donovani): 0.12 µM; IC50 ([3]; Rattus norvegicus, Myoblast): 0.06 µM; IC50 ([4]; Trypanosoma cruzi, TULAHUEN, L6, read-out: IC50 TC): 0.27 µM |
| CC(C)=CCC1=C(O)C(=O)c2ccccc2C1=O [Lapachol] | 16.4 µM | 1.6 | 3.33 µM | 8.0 | 26.6 µM | 17.6 µM | 1.5 |  |
| COc1cc([C@@H]2c3cc4c(cc3[C@H](O)[C@H]3COC(=O)[C@H]23)OCO4)cc(OC)c1OC [Podophyllotoxin] |  |  |  |  | 0.014 µM |  |  |  |
| CCCCCCCCCCCCCCCCOP(=O)([O-])OCC[N+](C)(C)C [Miltefosine] |  |  | 0.18 µM |  |  |  |  |  |
| O=C(Cn1ccnc1[N+](=O)[O-])NCc1ccccc1 [Benznidazole] |  |  |  |  |  | 2.33 µM |  |  |
| O=C1C(O)=C(C2=C(O)C(=O)c3ccccc3C2=O)C(=O)c2ccccc21 [2,2′-bis-(3-Hydroxy-1,4-naphthoquinone)] |  | 0.9 |  | 8.4 |  |  | 0.3 | IC50 ([1]; pure compound): 68.8 µM; IC50 ([2]; pure compound): 7.34 µM; IC50 ([3]; cytotoxicity, pure compound): 61.6 µM; IC50 [4, 10]: 237 µM |
| OC[C@H]1O[C@@H](Oc2ccc(O)c3cccc(O)c23)[C@H](O)[C@@H](O)[C@@H]1O [Compound 1, 4-O-β-D-Glucopyranosyl-1,4,5-trihydroxynaphthalene] | 6.1 µM |  | 16.7 µM | 7.3 | 122 µM | 169 µM | 0.7 | SI TB [1]: 20.0; IC50 ([1]; Trypanosoma brucei): 6.12 µM; IC50 ([2]; pure compound, listed as Hydrojuglone glucoside (1)): 16.6 µM; SI LD ([2]; ratio of cytotoxic (L6) over antiparasitic IC50, listed as Hydrojuglone glucoside (1)): 7.4; IC50 ([3]; cytotoxicity, pure compound, listed as Hydrojuglone glucoside (1)): 122 µM |
| Nc1nc(N)nc(Nc2ccc([As]3SCC(CO)S3)cc2)n1 (stereo not drawn) [Melarsoprol] | 0.005 µM |  |  |  |  |  |  |  |
| O=C1C=C(O)C(=O)c2ccccc21 [Lawson] |  | 0.2 |  | 10.3 |  |  | 0.6 | IC50 ([1]; pure compound): 101 µM; IC50 ([2]; pure compound): 1.99 µM; IC50 ([3]; cytotoxicity, pure compound): 20.6 µM; IC50 [4, 10]: 37.4 µM |
| OC[C@H]1O[C@@H](Oc2ccc(O)cc2)[C@H](O)[C@@H](O)[C@@H]1O [Arbutin (1,4-benzoquinone glucoside), Arbutin] | 236 µM | >1.5 | > 367 µM |  | > 367 µM | 244 µM | >1.5 |  |
| CC1=CC(=O)c2c(O)cccc2C1=O [Plumbagin] | 0.49 µM | 5.9 | 0.88 µM | 3.3 | 2.87 µM | 3.59 µM | 0.8 |  |
| O=C1C=CC(=O)c2c(O)cccc21 [Juglone] |  |  |  |  | 21 µM | > 100 µM |  | SI TB [1]: 13.0; IC50 ([1]; Trypanosoma brucei): 1.62 µM; SI LD [2]: 10.4; IC50 ([2]; Leishmania donovani): 2.02 µM |
